Patent USRE35801E, “Prophylactic and therapeutic composition for circulatory disorders and method of treatment” (priority 1985, dated 1998)
Values joined by “and” are separate entries in the source; they are usually repeats but may differ in a detail not shown here. Identical values can stand only once.

Experiments:
[1] = tested on: cerebral ischemia recirculation model; test: Protective action in cerebral ischemia recirculation model; type: in vivo, Wistar-strain male rat; parameters: key to Judgement of action: The case when restoration of electroencephalogram is judged as +; case when not recognized as -; conditions: 3 mg/kg
[2] = tested on: myocardial ischemia (isolated heart, cardiac output); test: Protective action for myocardial ischemia (isolated perfused working heart); parameters: species or system Wistar strain male rats
Excerpt: Protective action for myocardial ischemia
When coronary blood flow transporting nutritions to cardiac muscles is interrupted (disorder in blood flow) or recirculated (disorder in recirculation) by a certain cause, cardiac muscles will be damaged (disorder of mycardial ischemia). The degree of such disorder in cardiac muscles will be advanced as the period of ischemia state is prolonged to cause various ischemic cardiac disorders such as the so-called myocardial infarction and cardiac insufficiency.
Accordingly, the protective effect of the Compound No. 1, as a typical compound, on cardiac muscles were examined as described below.
In the experiment, Wistar strain male rats weighing 300 to 400 g were used. The heart was extirpated into a Krebs-Henseleit bicarbonate (KH) solution which had been oxygenated with 95% O2 -5% CO2, under anesthesia by intraperitoneal administration of 50 mg/kg of pentobarbital sodium. Immediately after the isolation, a cannula was intubated into the aorta ascendens, and perfusion was started according to the Langendorff method (75 cm H2 O). Subsequently, the cannula was intubated into the left artium. Then, perfusion in accordance with the Langerdorff method was further conducted for 10 minutes, and then the left artium cannula was opened change the mode of perfusion to that of the working heart method (preload 10 cm H2 O, afterload 80 cm H2 O) (American Journal of Physiology, 212, 804, 1967), which was conducted for 15 minutes. Next, in accordance with the method of Ichihara et al (Journal of Cardiovascular Pharmacology, 5, 745, 1983), the afterload on the aorta was released to provide an ischemic state in the cardiac muscles for 20 minutes. Since five minutes before the initiation of the ischemic state, the perfusate was changed to the one containing the test medicine and such perfusate was used also during the period of the ischemic state. Reperfusion was conducted for 30 minutes with a perfusate containing no test medicine with the afterload of 80 cm H2 O. In order to determine the cardiac functions, coronal perfusion flow (CF), cardiac output (CO), heart rate (HR), aorta pressure (AP) and rate pressure product (HR×AP) were measured. The CF was measured by use of a 10 ml measuring cylinder. The CO was measured through a direct blood flow measuring probe (Model FF-030, 30, produced by Nihon Kohden K.K.) disposed immediately in front of the left artium cannula, by use of an electromagnetic blood flow meter (Model MFV-2100, produced by Nihon Kohden K.K.) and an amplifier for bioelectricity (Mode AB-621G, produced by Nihon Kohden K.K,). The AP was measured through a pressure transducer (Model MPU-0.5, produced by Nihon Kohden K.K.) connected to the aortic cannula, by use of an amplifier for distortion pressure (Model AP-601G, produced by Nihon Kohden K.K.). The HR was measured by use of an cardiotacho meter (Model AT-601G, produced by Nihon Kohden K.K.). The rate pressure product (HR×AP) was calculated by multiplying the HR by the aortic pressure.
As the perfusate, a KH solution, which had been oxygenated with 95% O2 -5% CO2 and heated to 37° C. was used. The formulation of the KH solution (unit: mM) is as follows. NaCl 118, KCl 4.7, CaCl2 2.5, MgSO4 1.2, KH2 PO4 1.2, NaHCO3 25 and glucose 11. […]
Changes in the cardiac functions after treatment with the test medicine and recovery thereof at reperfusion are indicated in terms of percentage based on the value measured before the treatment with the test medicine. […]

CC1=NN(c2ccccc2)C(=O)C1 [Compound 1, 3-methyl-1-phenyl-2-pyrazolin-5-one]
Survival time after recirculation, average ([1]; average): 106 min | Judgement of action ([1]; individual animal): + and - | Survival time after recirculation ([1]; individual animal): 85 min and 126 min | protective action for myocardial ischemia (in words) [2]: exhibits protective action for myocardial ischemia | Recovery of the cardiac output (CO) ([2]; 10^-5 M, 30 minutes after reperfusion after 20 min ischemia, N = 5, mean ± standard error (Table 5)): 23.8 ± 14.6% | Recovery of the cardiac functions (CO 50% or more), percentage ([2]; 30 minutes after reperfusion): 40% | average recovery action based on the cardiac output (CO) ([2]; 30 minutes after reperfusion after 20 min cardiac ischemia): 24% | Number of recovery of the cardiac functions (CO 50% or more) ([2]; hearts recovered/total, 30 minutes after reperfusion): 2/5
